Experimental data taken from ChEMBL document CHEMBL2074279, “Pharmacokinetics of 5 (and 6)-carboxy-2',7'-dichlorofluorescein and its diacetate promoiety in the liver” (J Pharmacol Exp Ther, 2003).

How the values were obtained:
[1] = biological target: ATP-binding cassette sub-family C member 3 (Rattus norvegicus, UniProt O88563); experiment: TP_TRANSPORTER: inhibition of CDF uptake (CDF: 10 uM, Probenecid: 260 uM) in Mrp3-expressing Sf9 cells; format: functional; details: sf9, 260 µM
[2] = biological target: ATP-binding cassette sub-family C member 2 (Rattus norvegicus, UniProt Q63120); experiment: TP_TRANSPORTER: inhibition of CDF uptake (CDF: 10 uM, Probenecid: 260 uM) in Mrp2-expressing Sf9 cells; format: functional; details: sf9, 260 µM
ATP-binding cassette sub-family C member 2, sequence (Q63120 whole entry): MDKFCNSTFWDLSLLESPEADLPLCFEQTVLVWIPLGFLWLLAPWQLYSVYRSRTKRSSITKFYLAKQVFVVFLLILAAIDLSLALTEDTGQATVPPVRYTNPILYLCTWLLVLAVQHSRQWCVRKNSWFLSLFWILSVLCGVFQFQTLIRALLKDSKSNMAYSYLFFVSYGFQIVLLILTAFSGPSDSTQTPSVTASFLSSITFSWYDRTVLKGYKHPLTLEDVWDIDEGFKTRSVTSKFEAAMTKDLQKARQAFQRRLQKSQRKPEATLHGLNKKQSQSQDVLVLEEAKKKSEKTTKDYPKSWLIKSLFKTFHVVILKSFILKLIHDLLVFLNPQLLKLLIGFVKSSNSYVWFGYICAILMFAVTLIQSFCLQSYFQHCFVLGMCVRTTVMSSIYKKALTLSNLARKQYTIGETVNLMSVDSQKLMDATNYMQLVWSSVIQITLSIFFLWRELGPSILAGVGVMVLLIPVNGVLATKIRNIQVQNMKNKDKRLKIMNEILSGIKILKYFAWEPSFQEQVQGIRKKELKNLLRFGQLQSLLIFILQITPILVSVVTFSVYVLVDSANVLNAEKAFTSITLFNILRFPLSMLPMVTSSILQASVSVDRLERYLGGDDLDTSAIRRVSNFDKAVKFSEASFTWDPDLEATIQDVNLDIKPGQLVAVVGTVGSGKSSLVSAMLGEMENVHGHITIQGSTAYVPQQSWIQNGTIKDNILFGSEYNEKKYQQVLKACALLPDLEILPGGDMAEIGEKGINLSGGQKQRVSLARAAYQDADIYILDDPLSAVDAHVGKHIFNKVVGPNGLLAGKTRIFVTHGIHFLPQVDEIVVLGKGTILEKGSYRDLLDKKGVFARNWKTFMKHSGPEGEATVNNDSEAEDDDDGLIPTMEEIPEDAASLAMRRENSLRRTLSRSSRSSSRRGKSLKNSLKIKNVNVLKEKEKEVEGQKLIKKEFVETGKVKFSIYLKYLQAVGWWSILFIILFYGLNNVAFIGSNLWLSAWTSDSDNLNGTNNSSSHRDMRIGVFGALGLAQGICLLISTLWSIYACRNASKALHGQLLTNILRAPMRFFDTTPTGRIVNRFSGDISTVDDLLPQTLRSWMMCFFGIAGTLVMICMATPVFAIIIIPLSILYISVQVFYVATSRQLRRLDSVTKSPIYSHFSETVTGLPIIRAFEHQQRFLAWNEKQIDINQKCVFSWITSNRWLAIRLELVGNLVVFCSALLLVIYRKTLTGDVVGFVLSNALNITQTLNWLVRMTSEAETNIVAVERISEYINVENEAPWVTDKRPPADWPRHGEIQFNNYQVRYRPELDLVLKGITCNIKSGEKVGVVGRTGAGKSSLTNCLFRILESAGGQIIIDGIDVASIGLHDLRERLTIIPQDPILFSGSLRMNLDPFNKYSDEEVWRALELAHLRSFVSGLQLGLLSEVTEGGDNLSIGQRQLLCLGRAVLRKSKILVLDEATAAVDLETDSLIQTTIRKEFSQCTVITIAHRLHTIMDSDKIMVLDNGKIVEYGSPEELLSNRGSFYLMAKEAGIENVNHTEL

ATP-binding cassette sub-family C member 3, sequence (O88563 whole entry): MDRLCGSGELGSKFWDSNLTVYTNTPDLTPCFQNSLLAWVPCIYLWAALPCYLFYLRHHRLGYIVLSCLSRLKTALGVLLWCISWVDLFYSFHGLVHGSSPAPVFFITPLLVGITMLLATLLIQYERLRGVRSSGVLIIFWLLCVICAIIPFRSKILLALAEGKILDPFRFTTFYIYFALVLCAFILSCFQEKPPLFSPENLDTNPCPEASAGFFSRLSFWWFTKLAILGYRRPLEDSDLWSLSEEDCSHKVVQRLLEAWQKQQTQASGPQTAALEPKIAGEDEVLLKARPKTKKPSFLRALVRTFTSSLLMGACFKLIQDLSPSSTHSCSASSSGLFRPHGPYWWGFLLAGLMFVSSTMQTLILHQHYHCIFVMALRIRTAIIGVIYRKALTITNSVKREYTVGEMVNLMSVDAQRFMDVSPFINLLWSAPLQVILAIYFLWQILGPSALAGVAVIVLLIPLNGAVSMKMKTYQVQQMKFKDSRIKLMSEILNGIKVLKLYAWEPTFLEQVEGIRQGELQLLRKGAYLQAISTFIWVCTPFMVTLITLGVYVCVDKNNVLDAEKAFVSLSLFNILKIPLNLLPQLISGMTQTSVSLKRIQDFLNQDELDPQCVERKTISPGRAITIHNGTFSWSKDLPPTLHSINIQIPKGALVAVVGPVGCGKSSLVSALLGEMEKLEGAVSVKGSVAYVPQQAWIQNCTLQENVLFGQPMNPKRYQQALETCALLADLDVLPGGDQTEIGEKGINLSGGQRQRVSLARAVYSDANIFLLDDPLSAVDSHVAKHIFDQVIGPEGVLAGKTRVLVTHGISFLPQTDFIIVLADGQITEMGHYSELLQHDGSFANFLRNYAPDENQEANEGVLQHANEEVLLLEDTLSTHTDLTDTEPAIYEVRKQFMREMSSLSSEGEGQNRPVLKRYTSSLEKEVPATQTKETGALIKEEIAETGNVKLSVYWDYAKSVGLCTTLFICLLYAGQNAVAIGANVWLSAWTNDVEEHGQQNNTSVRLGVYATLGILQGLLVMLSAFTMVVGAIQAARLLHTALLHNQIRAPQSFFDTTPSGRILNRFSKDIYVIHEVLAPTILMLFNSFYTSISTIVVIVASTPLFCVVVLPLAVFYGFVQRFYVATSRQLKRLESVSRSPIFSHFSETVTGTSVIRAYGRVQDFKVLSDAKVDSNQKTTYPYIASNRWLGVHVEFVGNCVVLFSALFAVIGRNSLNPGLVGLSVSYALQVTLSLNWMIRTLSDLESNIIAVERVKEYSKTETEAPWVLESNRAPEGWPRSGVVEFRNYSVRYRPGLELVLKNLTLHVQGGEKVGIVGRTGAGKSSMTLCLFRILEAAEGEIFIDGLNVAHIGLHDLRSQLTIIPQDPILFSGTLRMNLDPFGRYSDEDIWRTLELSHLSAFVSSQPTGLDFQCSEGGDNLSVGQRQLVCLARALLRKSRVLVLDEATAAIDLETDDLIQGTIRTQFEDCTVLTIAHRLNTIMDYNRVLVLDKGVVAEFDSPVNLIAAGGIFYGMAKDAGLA

For `CCCN(CCC)S(=O)(=O)c1ccc(C(=O)O)cc1` [PROBENECID], the Activity [1] was “inhibitor [(at a rough estimate) 35 % of control]” and the Activity [2] was “inhibitor [(at a rough estimate) 40 % of control]”.
